Each block holds one molecule with its values, some of them ahead of it.
How the values were obtained:
[1] = molecular target: T1, mOBP5 (Mus musculus, UniProt Q9D3H2); test: Competitive fluorescence binding assay (displacement of NPN from mOBP5); settings: for IC50 / Kd: 2 μM mOBP5, 10 μM NPN; for IC50: 20 °C, for very weak ligands an arbitrary value of 200 μM was assigned, read-out: IC50 (µM) Fluo: concentration of competitor ligand causing a decrease of NPN fluorescence of half-maximal intensity; for Kd: calculated as Kd = [IC50]/(1 + [L]/Kd NPN), average of three experiments, read-out: Kd (µM) Fluo: dissociation constant determined by fluorescence; for fluorescence intensity of the mOBP5-NPN complex in the presence of odorant: competitive curves, Figure 3C
T1 construct: composed of an N-terminal His6-tag, followed by mOBP5 (Ala17-Glu163); made in house; host or cells: E. coli M15 [pREP4]
T1 sequence (Q9D3H2 17-163): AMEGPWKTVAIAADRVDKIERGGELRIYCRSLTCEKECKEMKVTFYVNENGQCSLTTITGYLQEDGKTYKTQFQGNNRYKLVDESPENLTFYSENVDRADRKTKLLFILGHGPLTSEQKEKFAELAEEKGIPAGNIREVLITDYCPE
Protocol: (§1) Competitive ligand binding experiments were performed using N-phenyl-1-naphthylamine (NPN) as a fluorescent probe as previously described. All measurements were conducted at 20 °C using a Cary Eclipse spectrofluorimeter (Agilent Technologies, Santa Clara, CA, United States) equipped with a Peltier temperature-control unit with a 1 cm light path, quartz cuvette, and 5 nm slits for both excitation and emission. […] The excitation wavelength of NPN was 337 nm, and the fluorescence emission was recorded between 350 and 600 nm. The value of the dissociation constant (Kd) NPN was calculated using SigmaPlot 12.5 software (Systat Software, Inc., San Jose, CA, USA), as previously described.
Competitive binding assays were carried out with 2 μM mOBP5 incubated with 10 μM NPN, as previously described. After the addition of the competitor compound and the stabilization of the signal (3–4 min), the fluorescence spectrum was recorded. The IC50 value is the concentration of odorant, which causes a fluorescence decrease in half-maximal intensity. The IC50 values were calculated using SigmaPlot software. Dissociation constants (Kd) for odorant competitors were calculated as Kd = [IC50]/(1 + [L]/Kd NPN), with [L] being the free fluorophore concentration and Kd being the OBP-fluorophore complex dissociation constant. The reported Kd values are the average of three measurements performed in three independent experiments.

[2] = molecular target: T1, mOBP5; test: Isothermal titration microcalorimetry (ITC); type: binding; settings: 25 °C, 25 μM mOBP5, 250 μM odorant, phosphate buffer pH 7.5; for Ka (ITC): association constant determined by ITC: in M-1 (unit assumed); for Kd: read-out: Kd (µM) ITC: dissociation constant determined by ITC (1/Ka)
Protocol: Isothermal titration microcalorimetry (ITC) experiments were carried out at 25 °C with a VP-ITC microcalorimeter (Malvern Panalytical, Palaiseau, France) as previously described. Before initiating the titration run, mOBP5 solutions (25 μM in 50 mM phosphate buffer, pH 7.5) were thoroughly degassed under vacuum. Ligand solutions (250 μM in 50 mM phosphate buffer, pH 7.5) were injected into one 3 µL aliquot, then 26 successive 10 μL aliquots. The duration of each injection was 20 s with a 210 s recovery time between injections. Heats of dilution determined in the absence of mOBP5 were subtracted from the titration data prior to curve fitting. Thermodynamic parameters were obtained by fitting the values to a single site binding model through nonlinear regression using Microcal Origin® software.

[3] = molecular target: T1, mOBP5; test: Fluorescence titration of mOBP5 with the probe NPN; type: binding; settings: 2 µM mOBP5, 50 mM sodium phosphate pH 7.5, 20 °C, excitation 337 nm; read-out: dissociation constant (Kd) of NPN
Protocol: as §1

[4] = molecular target: the molecule itself; test: SEC; calibrated Superdex 75 10/300 GL, room temperature, 100 mM potassium phosphate, 150 mM NaCl, pH 7.5, 1 mL/min; purified mOBP5 at 0.5 mg/mL

Molecule: CC(C)=CCCC(C)=CC=O (mixture of isomers) [citral]
IC50 [1]: 2.5 µM
Kd [1]: 0.61 µM
N ITC: binding stoichiometry per monomer determined by ITC [2]: 0.65
Ka (ITC): association constant determined by ITC [2]: 1.3E+07
Kd [2]: 0.076 µM

Molecule: CCCCCCCO [1-heptanol]
IC50 [1]: 2.4 µM
Kd [1]: 0.59 µM

Molecule: CCCCCCO [1-hexanol]
IC50 [1]: 40 µM

Molecule: COc1nccnc1CC(C)C [3-iso-butyl-2-methoxy-pyrazine]
IC50 [1]: 7.2 µM
Kd [1]: 1.3 µM

Molecule: COc1ccc(C=O)cc1 [4-methoxy-benzaldehyde]
IC50 [1]: 40 µM

Molecule: c1ccc(Nc2cccc3ccccc23)cc1 [NPN, N-phenyl-1-naphthylamine]
Kd [3]: 3330 ± 170 nM

Molecule: CC12CCC(CC1=O)C2(C)C (stereo not drawn) [camphor]
IC50 [1]: 10.4 µM
Kd [1]: 1.6 µM

Molecule: CC12CCC(CC1)C(C)(C)O2 [cineole]
IC50 [1]: 40 µM

Molecule: CCCC(=O)OCC [ethyl butyrate]
IC50 [1]: 40 µM

Molecule: CC(=O)OCCC(C)C [isoamyl acetate]
IC50 [1]: 2.5 µM
Kd [1]: 0.6 µM
N ITC: binding stoichiometry per monomer determined by ITC [2]: 0.87
Ka (ITC): association constant determined by ITC [2]: 8.6E+06
Kd [2]: 0.116 µM

Molecule: CC(C=O)Cc1ccc(C(C)(C)C)cc1 (stereo not drawn) [lilialdehyde]
IC50 [1]: 1.4 µM
Kd [1]: 0.38 µM
fluorescence intensity of the mOBP5-NPN complex in the presence of odorant [1]: drastically reduced

Molecule: CC1CCC(C(C)C)C(O)C1 (stereo not drawn) [menthol]
IC50 [1]: 1.5 µM
Kd [1]: 0.38 µM
fluorescence intensity of the mOBP5-NPN complex in the presence of odorant [1]: drastically reduced

Molecule: Cc1ccc(C(C)C)c(O)c1 [thymol]
IC50 [1]: 40 µM

Molecule: CC(=O)/C=C/C1=C(C)CCCC1(C)C [β-ionone]
IC50 [1]: 3 µM
Kd [1]: 0.71 µM

Molecule: CCCCCCC1CCC(=O)O1 (stereo not drawn) [γ-decalactone]
IC50 [1]: 2.4 µM
Kd [1]: 0.58 µM

B1: Mus musculus odorant-binding protein OBP5 (mOBP5), recombinant His6-tagged (natural protein, UniProt Q9D3H2 17-163, looked up)
chain: T1 sequence (Q9D3H2 17-163)
notes: Expressed from pQE31 (BamHI/HindIII); also called mOBP1a; source: E. coli M15 [pREP4], purified (HisTrap Ni2+-chelating column, dialysis); not shown: His6, N-terminal, kept
stoichiometry N [4]: 2

Further lines, results first:

IC50 [1]: 1.1 µM
Kd [1]: 0.28 µM
fluorescence intensity of the mOBP5-NPN complex in the presence of odorant [1]: drastically reduced
Molecule: C=C(C)C1CC=C(C)C(=O)C1 (single isomer, unassigned; (-)) [(-)-carvone]

IC50 [1]: 1.1 µM
Kd [1]: 0.29 µM
fluorescence intensity of the mOBP5-NPN complex in the presence of odorant [1]: drastically reduced
N ITC: binding stoichiometry per monomer determined by ITC [2]: 0.71
Ka (ITC): association constant determined by ITC [2]: 3.6E+07
Kd [2]: 0.028 µM
Molecule: CCCCCCCCO [1-octanol]

IC50 [1]: 1.2 µM
Kd [1]: 0.31 µM
fluorescence intensity of the mOBP5-NPN complex in the presence of odorant [1]: drastically reduced
Molecule: CCCCCCCCC(C)=O [2-decanone]

IC50 [1]: 1 µM
Kd [1]: 0.28 µM
fluorescence intensity of the mOBP5-NPN complex in the presence of odorant [1]: drastically reduced
N ITC: binding stoichiometry per monomer determined by ITC [2]: 0.47
Ka (ITC): association constant determined by ITC [2]: 8.7E+06
Kd [2]: 0.115 µM
Molecule: C=C(C)[C@H]1CC=C(C)C(=O)C1 [(+)-carvone]

IC50 [1]: 0.7 µM
Kd [1]: 0.19 µM
fluorescence intensity of the mOBP5-NPN complex in the presence of odorant [1]: drastically reduced
N ITC: binding stoichiometry per monomer determined by ITC [2]: 0.71
Ka (ITC): association constant determined by ITC [2]: 2.5E+07
Kd [2]: 0.04 µM
Molecule: CC(C)=CCC/C(C)=C/CO [geraniol]

IC50 [1]: 1.1 µM
Kd [1]: 0.3 µM
fluorescence intensity of the mOBP5-NPN complex in the presence of odorant [1]: drastically reduced
Molecule: C=CC(C)(O)CCC=C(C)C (stereo not drawn) [linalool]

IC50 [1]: 0.8 µM
Kd [1]: 0.23 µM
fluorescence intensity of the mOBP5-NPN complex in the presence of odorant [1]: drastically reduced
N ITC: binding stoichiometry per monomer determined by ITC [2]: 0.58
Ka (ITC): association constant determined by ITC [2]: 1.8E+07
Kd [2]: 0.055 µM
Molecule: CC(C)[C@@H]1CC[C@@H](C)CC1=O [menthone]

IC50 [1]: 1.3 µM
Kd [1]: 0.34 µM
fluorescence intensity of the mOBP5-NPN complex in the presence of odorant [1]: drastically reduced
Molecule: CCCCCCCC=O [octanal]

IC50 [1]: 0.9 µM
Kd [1]: 0.24 µM
fluorescence intensity of the mOBP5-NPN complex in the presence of odorant [1]: drastically reduced
Molecule: CC1=CCC2CC1C2(C)C (stereo not drawn) [α-pinene]

From publication PMC9855133, “Ligand Binding Properties of Odorant-Binding Protein OBP5 from Mus musculus” (Biology, 2022)
